Entries after “also recorded” stand apart in the source; their conditions may differ. Peptide text beside a SMILES is read from it.
What was measured:
[1] = alanylglutamine compared to glutamine; cited from earlier work
male runners [2] = assay: Run at 90% VO2max until volitional exhaustion; assay type: in vivo, human; settings: LD and HD compared to DHY
Experimental: The testing protocol is depicted in FIG. 1. Data collection occurred on four separate occasions. Each session required participants to perform a 60-min run at 75% of their previously measured VO2max. Following this run, all participants performed a run at 90% of their VO2max until volitional exhaustion. All participants performed their first trial (DHY) without any rehydration. During this session the total weight lost during the trial was determined. The fluid loss that occurred during this session was then used to determine the participant's swear rate (L·hr^−1). To continue in the study, participant's sweat rate was or exceeded 1.3 L·hr^−1. During the next three trails participants were provided 250 ml of fluid every 15 minutes in equal amounts. During one of the trials participants consumed only a flavored sports drink (ELECT only), while during the other trials participants consumed the alanine-glutamine supplement (Sustamine™) mixed in the same flavored sports drink at either a low (LD: 300 mg per 500 ml) or high (HD: 1 g per 500 ml) dose.

male runners [3] = assay: Multiple object tracking (CAVE, NeuroTracker); assay type: in vivo, human; settings: for NeuroTracker Δ, group mean: Post-Pre
Experimental: The testing protocol is depicted in FIG. 1. Data collection occurred on four separate occasions. Each session required participants to perform a 60-min run at 75% of their previously measured VO2max. Following this run, all participants performed a run at 90% of their VO2max until volitional exhaustion. All participants performed their first trial (DHY) without any rehydration. During this session the total weight lost during the trial was determined. The fluid loss that occurred during this session was then used to determine the participant's swear rate (L·hr^−1). To continue in the study, participant's sweat rate was or exceeded 1.3 L·hr^−1. During the next three trails participants were provided 250 ml of fluid every 15 minutes in equal amounts. During one of the trials participants consumed only a flavored sports drink (ELECT only), while during the other trials participants consumed the alanine-glutamine supplement (Sustamine™) mixed in the same flavored sports drink at either a low (LD: 300 mg per 500 ml) or high (HD: 1 g per 500 ml) dose. Visual optical tracking was assessed using a Cave Automatic Virtual Environment (CAVE) system. The CAVE is a 2.4 m×2.4 m×2.4 m room that includes a frontal canvas projection wall which served as surfaces for image projection. Four high-resolution projectors were synchronized, and the image was projected onto the front screen. Participants tracked 4 of 8 objects that moved in a three-dimensional plane. Velocity of movement began at a slow tracking speed and progressed on the performance of the individual participant. Each participant performed 10 trials. During each trial participants wore 3-dimensional glasses. The velocity of movement that was most successful was recorded. Additionally, to make inferences on true effects of the different trials on reaction performance, an analysis based on the magnitude of differences, calculated from 90% confidence intervals, as previously described by Batterham and Hopkins (2005), was used in this study. Differences in Post-Pre performance (Δresponse) between trials were analyzed via a published spreadsheet (Hopkins 2007), with the smallest non-trivial change set at 20% of the grand standard deviation (Batterham and Hopkins 2005). All data are expressed as a mean effect±SD, with percent chances of a beneficial, trivial or negative outcome. Qualitative inferences, based on quantitative chances were assessed as: <1% almost certainly not, 1-5% very unlikely, 5-25% unlikely, 25-75% possibly, 75-95% likely, 95-99% very likely and >99% almost certainly (Hopkins 2002).

C[C@H](N)C(=O)N[C@@H](CCC(N)=O)C(=O)O [L-Alanyl-L-Glutamine] (H-Ala-Gln-OH)
solubility in aqueous solutions [1]: superior
stability (heat stability) [1]: superior
run times at 90% VO2max (time to exhaustion) (male runners [2]): significantly longer at LD and HD compared to DHY; also recorded: improved time to exhaustion compared to when subjects were dehydrated; also recorded: can enhance time to exhaustion
NeuroTracker Δ, Interpretation (male runners [3]; Dehydration vs High Dose): Unclear
NeuroTracker Δ, Mean Difference (male runners [3]; Dehydration vs High Dose): −0.06
NeuroTracker Δ, Percent Negative (male runners [3]; Dehydration vs High Dose): 37.20%
NeuroTracker Δ, Percent Positive (male runners [3]; Dehydration vs High Dose): 12.32%
NeuroTracker Δ, Percent Trivial (male runners [3]; Dehydration vs High Dose): 50.47%
NeuroTracker Δ, Interpretation (male runners [3]; Dehydration vs Low Dose): Unclear
NeuroTracker Δ, Mean Difference (male runners [3]; Dehydration vs Low Dose): 0.008
NeuroTracker Δ, Percent Negative (male runners [3]; Dehydration vs Low Dose): 21.19%
NeuroTracker Δ, Percent Positive (male runners [3]; Dehydration vs Low Dose): 24.48%
NeuroTracker Δ, Percent Trivial (male runners [3]; Dehydration vs Low Dose): 54.33%
NeuroTracker Δ, Interpretation (male runners [3]; Gatorade vs High Dose): likely maintain or improve their scores more so than when they consumed the electrolyte drink only; also recorded: Likely
NeuroTracker Δ, Mean Difference (male runners [3]; Gatorade vs High Dose): −0.23
NeuroTracker Δ, Percent Negative (male runners [3]; Gatorade vs High Dose): 85.10%
NeuroTracker Δ, Percent Positive (male runners [3]; Gatorade vs High Dose): 0.44%
NeuroTracker Δ, Percent Trivial (male runners [3]; Gatorade vs High Dose): 14.46%
NeuroTracker Δ, group mean (male runners [3]; High Dose (1 g per 500 ml)): 0.201
NeuroTracker Δ, group mean (male runners [3]; Low Dose (300 mg per 500 ml)): 0.132
NeuroTracker Δ, Interpretation (male runners [3]; Low Dose vs Gatorade): Possibly
NeuroTracker Δ, Mean Difference (male runners [3]; Low Dose vs Gatorade): 0.17
NeuroTracker Δ, Percent Negative (male runners [3]; Low Dose vs Gatorade): 4.42%
NeuroTracker Δ, Percent Positive (male runners [3]; Low Dose vs Gatorade): 64.40%
NeuroTracker Δ, Percent Trivial (male runners [3]; Low Dose vs Gatorade): 31.18%
NeuroTracker Δ, Interpretation (male runners [3]; Low Dose vs High Dose): Possibly
NeuroTracker Δ, Mean Difference (male runners [3]; Low Dose vs High Dose): 0.069
NeuroTracker Δ, Percent Negative (male runners [3]; Low Dose vs High Dose): 26.72%
NeuroTracker Δ, Percent Positive (male runners [3]; Low Dose vs High Dose): 0.45%
NeuroTracker Δ, Percent Trivial (male runners [3]; Low Dose vs High Dose): 72.83%
changes in multiple object tracking (male runners [3]; between trials): No significant differences were noted between trials
